{"source": "patent US20230159891A1", "about": "“T CELL PROGENITOR PRODUCTION METHOD” (Kyoto University, priority 2020, published 2023)", "key": {"[1]": {"tested_on": "Hemogenic endothelial cells (HECs) induced from iPS cells", "test": "Differentiation culture of iPS-derived hemogenic endothelial cells into CD34+/CD7+ T cell progenitors (Example 1)", "type": "cell-based, human", "protocol": "The cell population containing hemogenic endothelial cells (HECs) for use was a floating cell population obtained by differentiating iPS cells (Ff-I01s04: derived from peripheral blood mononuclear cells of a healthy individual) provided from the Center for iPS Cell Research and Application, Kyoto University, according to known methods (e.g., the methods disclosed in Cell Reports 2 (2012) 1722-1735, or WO2017/221975). Specifically, Ff-I01s04 was seeded at 1×10^6 cells/well in an ultra-low-attachment 6-well plate (Day 0). The cells were cultured under hypoxic conditions (5% 02) for 4 days in EB medium (StemPro-34 supplemented with 10 μg/ml human insulin, 5.5 μg/ml human transferrin, 5 ng/ml sodium selenite, 2 mM L-glutamine, […] α-monothioglycerol, and 50 μg/ml ascorbic acid 2-phosphate) supplemented with 50 ng/ml BMP4, 50 ng/ml bFGF, 50 ng/ml VEGF, and 2 μM SB431542 (Day 4). Subsequently, culture was further performed in a medium supplemented with 50 ng/ml bFGF, 50 ng/ml VEGF, and 50 ng/ml SCF for 4 days (Day 8), thereby obtaining a cell population containing HECs. The floating cell population containing HECs were stained with the following antibody set. […] On day 11 after the start of culture, cells were collected with pipetting, and the cell number was measured. […]"}, "CD34^+ cells": {"tested_on": "CD34^+ cells", "conditions": "NPL 5 (Boitano et al.); cited from earlier work"}, "[2]": {"tested_on": "Hemogenic endothelial cells (HECs) derived from iPS cells", "test": "Importance of SR1 and IL-3 in production of T cell progenitor (Example 3)", "type": "cell-based, human", "conditions": "12 days culture", "protocol": "Hemogenic endothelial cells (HECs) derived from iPS cells prepared in the same manner as in Example 1 were sorted by BD FACSAria® Fusion and re-suspended in a StemSpan SFEM II medium, followed by seeding the cells into a culture vessel (6-well plate) coated with RN and DLL4-Fc (225,000/6 wells). […] Halfway through the culture, on day 4 after the start of culture, 500 μl of the medium described above was added. On day 7 after the start of culture, a half amount of the medium was replaced. On day 12 after the start of culture, cells were collected with pipetting, and the cell number was measured. The cells were stained with the antibodies shown in Table 2 and measured with BD FACSAria™ Fusion."}}, "data": [{"smiles": "CC(C)n1cnc2c(NCCc3ccc(O)cc3)nc(-c3csc4ccccc34)nc21", "note": "[SR1, 4-(2-((2-(benzo[b]thiophen-3-yl)-9-isopropyl-9H-purin-6-yl)amino)ethyl)phenol]", "values": [{"measurement": "cell growth", "setting": "[1]; 10 days of culture, 1 nM SR1 with SCF, Flt3L, TPO, IL-7, IL-6, IL-3 in StemSpan SFEM II on RetroNectin/DLL4-Fc coated plate", "value": "about 150 fold"}, {"measurement": "proportion of cells that were proT (CD34+/CD7+) cells", "setting": "[1]; same culture as E1, flow cytometry after culture", "value": "about 25%"}, {"measurement": "expansion of CD34+ cells", "setting": "CD34^+ cells", "value": "promoted expansion"}, {"measurement": "expression level of CD34", "setting": "[2]; flow cytometry, control vs -SR1 condition, FIG. 4", "value": "plays an important role in maintaining the expression level of CD34"}, {"measurement": "cell proliferation (cell number) when the factor is excluded from the additives", "setting": "[2]; control: 1 nM SR1, 10 ng/ml IL-3 plus SCF, Flt3L, TPO, IL-7, IL-6, FIG. 3", "value": "reduced"}]}]}
